From PMC9097415, “Nanomolar EP4 receptor potency and expression of eicosanoid-related enzymes in normal appearing colonic mucosa from patients with colorectal neoplasia” (BMC Gastroenterology, 2022)
Where “and” joins values, the source holds several entries; their conditions need not be identical. Equal values may be shown once. Each block holds one compound with its values, some of them ahead of it.

Assays:
EP1 receptor = target: T1, EP1 receptor (Homo sapiens, UniProt P34995); experiment: EP1 agonist stimulation of colonic mucosa biopsies in MUAS-chambers, SCC; type: cell-based; settings: biopsies exposed to the selective EP1 agonist
T1 construct: Four biopsies were mounted and oxygenated in MUAS-chambers after extraction; from tissue; host or cells: human colonic mucosa biopsies mounted in MUAS (modified Ussing) chambers
T1 sequence (P34995 1-402): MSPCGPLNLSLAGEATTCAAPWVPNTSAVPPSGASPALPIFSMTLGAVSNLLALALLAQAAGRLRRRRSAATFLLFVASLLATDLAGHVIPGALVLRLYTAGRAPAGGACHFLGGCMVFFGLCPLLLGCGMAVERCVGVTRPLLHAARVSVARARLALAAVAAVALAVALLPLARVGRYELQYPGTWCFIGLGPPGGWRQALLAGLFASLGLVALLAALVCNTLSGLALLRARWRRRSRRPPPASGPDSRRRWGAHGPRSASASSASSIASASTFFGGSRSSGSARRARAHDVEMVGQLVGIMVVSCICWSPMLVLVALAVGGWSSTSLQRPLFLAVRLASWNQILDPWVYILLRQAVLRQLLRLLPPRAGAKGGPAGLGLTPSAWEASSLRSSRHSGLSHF
Protocol: (§1) Four biopsies were mounted and oxygenated in MUAS-chambers after extraction as described by Larsen et al. generally within 45 min after extraction. Biopsies were bathed on both sides with 10 mL Ringer, supplemented with 5.5 mM D-glucose. Temperature was maintained at 37.2 °C by water jackets. An automated voltage-clamp device continuously recorded SCC and slope conductance.
(§2) Experiments began after a stable basal SCC was obtained within 10 min after proper mounting. All experiments were initiated by addition of amiloride (20 µM, mucosal side) to inhibit electrogenic sodium absorption mediated through epithelial sodium channels and followed by theophylline (400 µM, serosal side) to inhibit phosphodiesterase-dependent cyclic adenosine monophosphate (cAMP) degradation. Finally, to eliminate endogenous prostaglandin synthesis, indomethacin (13 µM, serosal side) was added and incubated for 40 min.
Biopsies from 47 patients were treated with PGE2 and selective EP receptor agonists to investigate receptor function, Table 1. A single agonist was added in increasing concentrations (1 nM to 5 µM, serosal side) to each MUAS-chamber. […]
To assess agonists and receptors, data obtained from dose–response curves were analyzed with either a single-Michaelis–Menten model (srm) or a two-Michaelis–Menten receptor/site model (trm) using Sigmaplot 13.0 for Windows, Systat Software Inc. (USA/Canada). […]

EP4 receptor [1] = target: T2, EP4 receptor (Homo sapiens, UniProt P35408); experiment: EP4 antagonist GW-X added before PGE2 dose-response in MUAS-chambers, agonist-based Cheng-Prusoff analysis; type: cell-based
T2 construct: Four biopsies were mounted and oxygenated in MUAS-chambers after extraction; from tissue; host or cells: human colonic mucosa biopsies mounted in MUAS (modified Ussing) chambers
Protocol: as §1, §2
Biopsies from 26 patients were treated with selective EP receptor antagonists, Table 1. A combination of 3 antagonists was added to each MUAS chamber (serosal side), to single out and investigate the remaining non-inhibited EP receptor subtype. After antagonist incubation (45 min), cumulative doses of PGE2 were added (3 nM to 1 µM, serosal side). The EP4 receptor was also examined with another selective antagonist, GW627368X (GW-X, 5 µM, serosal side).
(§3) To assess agonists and receptors, data obtained from dose–response curves were analyzed with either a single-Michaelis–Menten model (srm) or a two-Michaelis–Menten receptor/site model (trm) using Sigmaplot 13.0 for Windows, Systat Software Inc. (USA/Canada). Outcome data were maximum SCC responses (RMax) and EC50 of these analyses.
From 2 agonist dose-response curves, one determined in the absence of a competitive antagonist, the other in its presence at only a single concentration, it is possible to calculate the antagonist apparent half inhibition dissociation constant at equilibrium, […]. […]

EP receptors (EP1-4) = experiment: PGE2 stimulation of colonic mucosa biopsies in MUAS-chambers, short circuit current (SCC); type: cell-based, human
Protocol: as §1, §2
(§4) Biopsies from 47 patients were treated with PGE2 and selective EP receptor agonists to investigate receptor function, Table 1. A single agonist was added in increasing concentrations (1 nM to 5 µM, serosal side) to each MUAS-chamber. The final agonist concentration step was followed by the addition of 5 µM PGE2, to elicit a maximal PGE2-induced response.
as §3

EP4 receptor [2] = target: T2, EP4 receptor; experiment: EP4 agonist stimulation of colonic mucosa biopsies in MUAS-chambers, SCC; type: cell-based
Protocol: as §1, §2, §4, §3

T2 sequence (P35408 whole entry): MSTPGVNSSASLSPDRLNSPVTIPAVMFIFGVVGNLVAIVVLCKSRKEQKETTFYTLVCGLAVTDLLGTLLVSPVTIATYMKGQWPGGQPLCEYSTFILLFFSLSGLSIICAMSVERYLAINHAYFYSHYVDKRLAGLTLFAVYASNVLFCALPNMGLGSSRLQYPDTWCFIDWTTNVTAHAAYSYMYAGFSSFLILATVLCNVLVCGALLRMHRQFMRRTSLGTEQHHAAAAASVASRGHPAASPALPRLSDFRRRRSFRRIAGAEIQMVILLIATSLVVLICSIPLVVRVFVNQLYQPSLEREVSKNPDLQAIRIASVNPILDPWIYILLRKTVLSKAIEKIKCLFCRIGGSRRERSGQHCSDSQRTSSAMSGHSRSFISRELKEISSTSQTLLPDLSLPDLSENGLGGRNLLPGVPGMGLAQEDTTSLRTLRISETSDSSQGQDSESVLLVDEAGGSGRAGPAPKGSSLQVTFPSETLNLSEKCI

Biopsies showing no increase in SCC (EP1 receptor): 4 out of 22
Compound: CCCC[C@H](C)C[C@H](O)/C=C/[C@H]1[C@H](O)CC(=O)[C@@H]1CC(=O)C1CCC(C(=O)O)CC1 (some centres unmarked) [EP1 agonist, ONO-DI004]

Mean EC50 ratio (agonist EC50 with / without antagonist) (EP4 receptor [1]; GW-X 5 µM, 4 protocols): approximately 25
IC50 (EP4 receptor [1]; against PGE2 (and TCS 2510), GW-X 5 µM, from EC50 ratios, 14 individual experiments): ~210 nM and 210 nM
Type of inhibition of PGE2 (EP4 receptor [1]; low nanomolar PGE2 concentration range, rightward shift of the dose-response curve): competitive inhibition
Compound: CCOc1c2c(c(OCC)c3ccccc13)C(=O)N(c1ccc(CC(=O)NS(=O)(=O)c3ccccc3)cc1)C2 [GW-X, GW627368X]

EP4 receptor potency of PGE2 (EP receptors (EP1-4); normal appearing colonic mucosa): low nanomolar range
RMax rank among agonists (EP receptors (EP1-4); srm and trm): highest
Average separation factor between EC50s of high and low affinity receptors (EP receptors (EP1-4); two receptor model (trm)): 64
Compound: CCCCC[C@H](O)/C=C/[C@H]1[C@H](O)CC(=O)[C@@H]1C/C=C\CCCC(=O)O [PGE2, Prostaglandin E2]
PGE2 concentration at which SCC increased (as low as) (EP receptors (EP1-4); both patient groups (CRN and CTRL), serosal side): ≤ 1 nM

RMax as share of the PGE2 response (EP4 receptor [2]; CRN patients): ~75%
RMax as share of the PGE2 response (EP4 receptor [2]; CTRL patients): approximately 50%
Sensitivity / potency for SCC increase (EP4 receptor [2]; similar sensitivity to PGE2): high potency in the low nanomolar range
EC50 in CRN patients compared to CTRLs (EP4 receptor [2]; single receptor model (srm)): higher
Average separation factor between EC50s of high and low affinity receptors (EP4 receptor [2]; two receptor model (trm)): 15
RMax of low affinity receptors in CRN patients (EP4 receptor [2]; two receptor model (trm)): significantly increased
Compound: TCS 2510 [EP4 agonist]
